Like-named read-outs stand apart in the source and are kept apart here. Where only a bound is given, the exact number is not on record here.

For experiment [1], the target named is human JAK1 (a.a. 837-1142) (Homo sapiens, UniProt P23458). Description: In vitro JAK kinase assay (HTRF, phosphorylation of biotinylated peptide), JAK1. The format is biochemical. The note with it: 1 mM ATP. The method, boiled down: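 Phosphorylation of a biotinylated peptide was run at room temperature for 1 hour using the N-terminally His-tagged JAK1 kinase domain (837-1142) from insect cells. After an EDTA stop, Eu-Py20 and SA-APC gave an HTRF read; values are binned potency ranges.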

In the next experiment the target is T1, JAK2 (a.a. 828-1132) (Homo sapiens, UniProt O60674).
T1 construct: JAK2 (a.a. 828-1132); His tag (N)
The experiment is described as follows: In vitro JAK kinase assay (HTRF, phosphorylation of biotinylated peptide), JAK2. The format is biochemical. The note with it: 1 mM ATP. The procedure, abridged:
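HTRF detection (Eu-Py20, SA-APC, 40 min) of biotinylated-peptide phosphorylation, following a 1 hour room-temperature reaction quenched with 45 mM EDTA. Enzymes: insect-cell-expressed N-terminal His-tagged JAK1 (837-1142) and JAK2 (828-1132) catalytic domains. Activities reported in ranged categories.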
A general note: In TR-FRET formats the signal depends on donor and acceptor labels being close together.

Chain of human JAK1 (a.a. 837-1142) (P23458 849-1154): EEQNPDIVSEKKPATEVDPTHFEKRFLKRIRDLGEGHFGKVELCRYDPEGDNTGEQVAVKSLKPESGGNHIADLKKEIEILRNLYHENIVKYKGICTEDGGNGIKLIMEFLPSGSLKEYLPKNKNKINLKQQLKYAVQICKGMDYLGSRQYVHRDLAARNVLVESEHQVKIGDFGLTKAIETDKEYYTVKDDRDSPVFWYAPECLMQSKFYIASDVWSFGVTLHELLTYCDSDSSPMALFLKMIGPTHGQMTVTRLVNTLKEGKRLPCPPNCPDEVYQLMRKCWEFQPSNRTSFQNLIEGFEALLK
T1 sequence (O60674 828-1132): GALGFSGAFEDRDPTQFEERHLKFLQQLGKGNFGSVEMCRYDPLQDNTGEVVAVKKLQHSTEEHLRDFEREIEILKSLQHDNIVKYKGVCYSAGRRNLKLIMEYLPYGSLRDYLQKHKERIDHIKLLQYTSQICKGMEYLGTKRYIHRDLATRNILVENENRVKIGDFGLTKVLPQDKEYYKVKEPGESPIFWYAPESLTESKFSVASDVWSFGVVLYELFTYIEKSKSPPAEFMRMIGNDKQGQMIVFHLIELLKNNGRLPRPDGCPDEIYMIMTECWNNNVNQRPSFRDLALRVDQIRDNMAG

Broadly, the IC50 is the concentration that gives 50% inhibition. `N#CC[C@]1(n2cc(-c3ncnc4[nH]ccc34)cn2)C[C@H](N2CCC(Oc3cc(CN4CC(O)C4)nc(C(F)(F)F)n3)CC2)C1` [Example 144, {trans-3-(4-{[6-[(3-hydroxyazetidin-1-yl)methyl]-2-(trifluoromethyl)pyrimidin-4-yl]oxy}piperidin-1-yl)-1-[4-(7H-pyrrolo[2,3-d]pyrimidin-4-yl)-1H-pyrazol-1-yl]cyclobutyl}acetonitrile]: the results for the IC50 (in experiment [1] (Table F); against JAK2 (a.a. 828-1132) (Table F)) were 0.01 to 0.025 µM and more than 0.1 µM, respectively.
Take `COC(C)(C)c1cc(C(=O)N2CCN([C@H]3C[C@](CC#N)(n4cc(-c5ncnc6[nH]ccc56)cn4)C3)CC2)nc(C(F)(F)F)n1` [Example 69, {trans-3-(4-{[6-(1-methoxy-1-methylethyl)-2-(trifluoromethyl)pyrimidin-4-yl]carbonyl}piperazin-1-yl)-1-[4-(7H-pyrrolo[2,3-d]pyrimidin-4-yl)-1H-pyrazol-1-yl]cyclobutyl}acetonitrile]: the half-inhibitory concentration (IC50) in experiment [1] (Table F) was less than 0.01 µM; at JAK2 (a.a. 828-1132) (Table F), 0.025 to 0.1 µM.
For `CN(C)/C(=N\C#N)N1CCN([C@H]2C[C@](CC#N)(n3cc(-c4ncnc5[nH]ccc45)cn3)C2)CC1` [Example 118, N′-cyano-4-{trans-3-(cyanomethyl)-3-[4-(7H-pyrrolo[2,3-d]pyrimidin-4-yl)-1H-pyrazol-1-yl]cyclobutyl}-N,N-dimethylpiperazine-1-carboximidamide] the same measures were 0.01 to 0.025 µM and 0.025 to 0.1 µM.
For the compound `CNC(=O)N1CCN([C@H]2C[C@](CC#N)(n3cc(-c4ncnc5[nH]ccc45)cn3)C2)CC1` [Example 112, 4-{trans-3-(cyanomethyl)-3-[4-(7H-pyrrolo[2,3-d]pyrimidin-4-yl)-1H-pyrazol-1-yl]cyclobutyl}-N-methylpiperazine-1-carboxamide], the results for the IC50 (in experiment [1] (Table F); against JAK2 (a.a. 828-1132) (Table F)) were 0.01 to 0.025 µM and 0.025 to 0.1 µM, respectively.
Regarding `N#CC[C@]1(n2cc(-c3ncnc4[nH]ccc34)cn2)C[C@@H](N2CCN(C(=O)c3ccc(F)c(OC(F)(F)F)c3)CC2)C1` [Example 26, {cis-3-{4-[4-fluoro-3-(trifluoromethoxy)benzoyl]piperazin-1-yl}-1-[4-(7H-pyrrolo[2,3-d]pyrimidin-4-yl)-1H-pyrazol-1-yl]cyclobutyl}acetonitrile], the IC50 was in the range of 0.01 to 0.025 µM in experiment [1] (Table A, read-out: JAK1 IC50) and 0.025 to 0.1 µM on JAK2 (a.a. 828-1132) (Table A, read-out: JAK2 IC50).
On to `COCc1cc(OC2CCN([C@H]3C[C@@](CC#N)(n4cc(-c5ncnc6[nH]ccc56)cn4)C3)CC2)nc(C(F)(F)F)c1` (single isomer, unassigned) [Example 121, {cis-3-(4-{[4-(methoxymethyl)-6-(trifluoromethyl)pyridin-2-yl]oxy}piperidin-1-yl)-1-[4-(7H-pyrrolo[2,3-d]pyrimidin-4-yl)-1H-pyrazol-1-yl]cyclobutyl}acetonitrile], for which the IC50 in experiment [1] (Table F) was 0.025 to 0.1 µM; against JAK2 (a.a. 828-1132) (Table F), more than 0.1 µM.
For the compound `CC(C)[C@H](C)NC(=O)N1CCN([C@H]2C[C@](CC#N)(n3cc(-c4ncnc5[nH]ccc45)cn3)C2)CC1` [Example 94, 4-{trans-3-(cyanomethyl)-3-[4-(7H-pyrrolo[2,3-d]pyrimidin-4-yl)-1H-pyrazol-1-yl]cyclobutyl}-N-[(1S)-1,2-dimethylpropyl]piperazine-1-carboxamide], the values for the IC50 (in experiment [1] (Table F); against JAK2 (a.a. 828-1132) (Table F)) were less than 0.01 µM and 0.025 to 0.1 µM, respectively.
For the compound `CC(C)(C)NCc1cc(C(=O)N2CCN([C@H]3C[C@](CC#N)(n4cc(-c5ncnc6[nH]ccc56)cn4)C3)CC2)nc(C(F)(F)F)n1` [Example 57, {trans-3-(4-{[6-[(tert-butylamino)methyl]-2-(trifluoromethyl)pyrimidin-4-yl]carbonyl}piperazin-1-yl)-1-[4-(7H-pyrrolo[2,3-d]pyrimidin-4-yl)-1H-pyrazol-1-yl]cyclobutyl}acetonitrile], the IC50 was less than 0.01 µM in experiment [1] (Table F) and 0.01 to 0.025 µM on JAK2 (a.a. 828-1132) (Table F).
In the case of `N#CC[C@]1(n2cc(-c3ncnc4[nH]ccc34)cn2)C[C@H](N2CCN(C(=O)c3cc(F)cnc3Cl)CC2)C1` [Example 9b, {trans-3-{4-[(2-chloro-5-fluoropyridin-3-yl)carbonyl]piperazin-1-yl}-1-[4-(7H-pyrrolo[2,3-d]pyrimidin-4-yl)-1H-pyrazol-1-yl]cyclobutyl}acetonitrile], the IC50 is less than 0.01 µM in experiment [1] (Table B, read-out: JAK1 IC50) and 0.01 to 0.025 µM on JAK2 (a.a. 828-1132) (Table B, read-out: JAK2 IC50).
On to `N#CC[C@]1(n2cc(-c3ncnc4[nH]ccc34)cn2)C[C@H](N2CCC(Oc3cc(CN4CCC4)cc(C(F)(F)F)n3)CC2)C1` [Example 156, {trans-3-(4-{[4-(azetidin-1-ylmethyl)-6-(trifluoromethyl)pyridin-2-yl]oxy}piperidin-1-yl)-1-[4-(7H-pyrrolo[2,3-d]pyrimidin-4-yl)-1H-pyrazol-1-yl]cyclobutyl}acetonitrile], for which the IC50 in experiment [1] (Table F) was less than 0.01 µM; against JAK2 (a.a. 828-1132) (Table F), 0.025 to 0.1 µM.
In the case of `Cc1cc(OC2CCN([C@H]3C[C@@](CC#N)(n4cc(-c5ncnc6[nH]ccc56)cn4)C3)CC2)nc(C(F)(F)F)c1` [Example 151, {trans-3-(4-{[4-methyl-6-(trifluoromethyl)pyridin-2-yl]oxy}piperidin-1-yl)-1-[4-(7H-pyrrolo[2,3-d]pyrimidin-4-yl)-1H-pyrazol-1-yl]cyclobutyl}acetonitrile], the figures for the IC50 (in experiment [1] (Table F); at JAK2 (a.a. 828-1132) (Table F)) were less than 0.01 µM and 0.025 to 0.1 µM, respectively.
Turning to `CN(CC(F)(F)F)C(=O)N1CCN([C@H]2C[C@](CC#N)(n3cc(-c4ncnc5[nH]ccc45)cn3)C2)CC1` [Example 84, 4-{trans-3-(cyanomethyl)-3-[4-(7H-pyrrolo[2,3-d]pyrimidin-4-yl)-1H-pyrazol-1-yl]cyclobutyl}-N-methyl-N-(2,2,2-trifluoroethyl)piperazine-1-carboxamide], the results for the IC50 (in experiment [1] (Table F); against JAK2 (a.a. 828-1132) (Table F)) were 0.025 to 0.1 µM and more than 0.1 µM, respectively.
Consider `N#CC[C@]1(n2cc(-c3ncnc4[nH]ccc34)cn2)C[C@@H](N2CCC(Oc3cc(C#N)cc(C(F)(F)F)n3)CC2)C1` (single isomer, unassigned) [Example 133, 2-[(1-{cis-3-(cyanomethyl)-3-[4-(7H-pyrrolo[2,3-d]pyrimidin-4-yl)-1H-pyrazol-1-yl]cyclobutyl}piperidin-4-yl)oxy]-6-(trifluoromethyl)isonicotinonitrile], for which the IC50 was 0.025 to 0.1 µM in experiment [1] (Table F) and more than 0.1 µM on JAK2 (a.a. 828-1132) (Table F).
As to `N#CC[C@]1(n2cc(-c3ncnc4[nH]ccc34)cn2)C[C@H](N2CCN(C(=O)N[C@@H]3CCOC3)CC2)C1` [Example 87, 4-{trans-3-(cyanomethyl)-3-[4-(7H-pyrrolo[2,3-d]pyrimidin-4-yl)-1H-pyrazol-1-yl]cyclobutyl}-N-[(3R)-tetrahydrofuran-3-yl]piperazine-1-carboxamide], the IC50 in experiment [1] (Table F) is 0.01 to 0.025 µM; at JAK2 (a.a. 828-1132) (Table F) it was more than 0.1 µM.
Turning to `CN(C)Cc1cc(C(=O)N2CCN([C@H]3C[C@](CC#N)(n4cc(-c5ncnc6[nH]ccc56)cn4)C3)CC2)cc(C(F)F)c1` [Example 74, {trans-3-(4-{3-(difluoromethyl)-5-[(dimethylamino)methyl]benzoyl}piperazin-1-yl)-1-[4-(7H-pyrrolo[2,3-d]pyrimidin-4-yl)-1H-pyrazol-1-yl]cyclobutyl}acetonitrile], the values for the IC50 (in experiment [1] (Table F); on JAK2 (a.a. 828-1132) (Table F)) were less than 0.01 µM and 0.01 to 0.025 µM, respectively.
As to `N#CC[C@]1(n2cc(-c3ncnc4[nH]ccc34)cn2)C[C@H](N2CCC(Oc3cc(CN)nc(C(F)(F)F)n3)CC2)C1` [Example 147, {trans-3-(4-{[6-(aminomethyl)-2-(trifluoromethyl)pyrimidin-4-yl]oxy}piperidin-1-yl)-1-[4-(7H-pyrrolo[2,3-d]pyrimidin-4-yl)-1H-pyrazol-1-yl]cyclobutyl}acetonitrile], the values for the IC50 (in experiment [1] (Table F); on JAK2 (a.a. 828-1132) (Table F)) were 0.01 to 0.025 µM and 0.025 to 0.1 µM, respectively.
For `CN(C)Cc1cc(C(=O)N2CCN([C@H]3C[C@@](CC#N)(n4cc(-c5ncnc6[nH]ccc56)cn4)C3)CC2)cc(C(F)(F)F)c1` [Example 135, {cis-3-{4-[3-[(dimethylamino)methyl]-5-(trifluoromethyl)benzoyl]piperazin-1-yl}-1-[4-(7H-pyrrolo[2,3-d]pyrimidin-4-yl)-1H-pyrazol-1-yl]cyclobutyl}acetonitrile], the results for the concentration for half-maximal inhibition (IC50) (in experiment [1] (Table F); at JAK2 (a.a. 828-1132) (Table F)) were 0.01 to 0.025 µM and more than 0.1 µM, respectively.
With `CN(C)Cc1cc(OC2CCN([C@H]3C[C@](CC#N)(n4cc(-c5ncnc6[nH]ccc56)cn4)C3)CC2)nc(C(F)(F)F)c1` [Example 130, {trans-3-(4-{[4-[(dimethylamino)methyl]-6-(trifluoromethyl)pyridin-2-yl]oxy}piperidin-1-yl)-1-[4-(7H-pyrrolo[2,3-d]pyrimidin-4-yl)-1H-pyrazol-1-yl]cyclobutyl}acetonitrile], the IC50 in experiment [1] (Table F) is less than 0.01 µM; against JAK2 (a.a. 828-1132) (Table F), more than 0.1 µM.
As to `CC[C@H](NC(=O)N1CCN([C@H]2C[C@](CC#N)(n3cc(-c4ncnc5[nH]ccc45)cn3)C2)CC1)C(F)(F)F` [Example 115, 4-{trans-3-(cyanomethyl)-3-[4-(7H-pyrrolo[2,3-d]pyrimidin-4-yl)-1H-pyrazol-1-yl]cyclobutyl}-N-[(1S)-1-(trifluoromethyl)propyl]piperazine-1-carboxamide], the IC50 in experiment [1] (Table F) is less than 0.01 µM; against JAK2 (a.a. 828-1132) (Table F) it was more than 0.1 µM.
Consider `CNCc1cc(C(=O)N2CCN([C@H]3C[C@](CC#N)(n4cc(-c5ncnc6[nH]ccc56)cn4)C3)CC2)nc(C(F)(F)F)n1` [Example 50, {trans-3-(4-{[6-[(methylamino)methyl]-2-(trifluoromethyl)pyrimidin-4-yl]carbonyl}piperazin-1-yl)-1-[4-(7H-pyrrolo[2,3-d]pyrimidin-4-yl)-1H-pyrazol-1-yl]cyclobutyl}acetonitrile], for which the IC50 in experiment [1] (Table F) is less than 0.01 µM; on JAK2 (a.a. 828-1132) (Table F), 0.025 to 0.1 µM.
